Test results: patent US10045978B2 (AB SCIENCE, priority 2010, dated 2018)

Tested on: patients with indolent forms of mastocytosis with handicap, D816V absent in at least one infiltrated organ
Experiment: Example 1 phase 2a study, response assessment
Format: in vivo, human
Parameters: Hamilton rating Δ Mean ± SD / QLQ-C30 Symptom Δ Mean ± SD / QLQ-C30 Global Health Δ Mean ± SD / AFIRMM Δ Mean ± SD / Hamilton rating ΔMean ± SD / QLQC30 Symptom ΔMean ± SD / QLQC30 Global Health ΔMean ± SD / AFIRMM ΔMean ± SD: scale not given here
Conditions: for AFIRMM ΔMean ± SD / Flushes per day ΔMean ± SD / Hamilton rating ΔMean ± SD / Micturitions per day ΔMean ± SD / OPA Score Change: (2, 3, 4) to (0, 1) / OPA Score No change / Pruritus ΔMean ± SD / QLQC30 Functional ΔMean ± SD / QLQC30 Global Health ΔMean ± SD / QLQC30 Symptom ΔMean ± SD / Stools per day ΔMean ± SD: extension-phase cohort
Protocol: Eligible patients were aged >18 years, had previously documented indolent systemic, smoldering systemic or cutaneous mastocytosis as per the WHO classification with associated disability as the result of mast cell released mediators and had not responded to usual symptomatic treatments for more the 6 months. […] A single occurrence of this criterion was deemed sufficient for inclusion and so no systematic examination of multiple organs was carried out specifically for this study.
Patients were classified as having a handicap if after appropriate symptomatic treatments they fulfilled at least one of the following a priori criteria: number of flushes/day ≥1; pruritus score ≥6; number of stools ≥4/day; micturition frequency ≥8/day; Hamilton rating for depression ≥10; or EORTC quality-of-life questionnaire (QLQ-C30) symptom score, functional score, and global health status of >0. Patients were excluded if they experienced inadequate organ function defined via blood test levels, or an Eastern Cooperative Oncology Group performance status >2. Other exclusion criteria included: life expectancy <6 months, severe or uncontrolled medical disease, and patients who were pregnant or nursing.
In accordance to the AFIRMM study (Hermine O, et al., 2008, PLoS ONE. 3:e2266), evaluation of treatment response was based upon the change of clinical symptoms associated with a patient's handicaps at week 12 (W12) relative to baseline. Primary endpoints were daily frequency of flushes; pruritus score; and Hamilton rating for depression, as well as, daily stool and micturition frequencies; QLQ-C30 global health status, functional, and symptom scores. […] For those patients entering the extension phase, assessments were performed every 4 weeks for the first 3 months of extension, and every 12 weeks thereafter. Secondary endpoints included the W12 assessment of AFIRMM score (a validated questionnaire assessing the self-perceived severity of mastocytosis) (Hermine O, et al., 2008, PLoS ONE. 3:e2266); overall patient assessment (OPA) score; tryptase levels; and change in organ mast cell infiltration. Determination of D816V mutation and serum tryptase levels was conducted following procedures described previously (Hermine O, et al., 2008, PLoS ONE. 3:e2266). Overall clinical response analysis at W12 defined a responder as having an improvement of ≥50% in baseline handicap of a key response endpoint (Hamilton rating, flushes, or pruritus) without deterioration or emergence of handicap. Any patient with deterioration of ≥50% in any handicap, and/or with emergence of a new handicap with an increase of ≥50% from baseline was considered as worsening. Any patient who discontinued the study before W12 was considered a non responder. Discrimination between dose regimens was investigated by analyses of the ‘time to first response’, according to the initial dosage, and ‘dose at time of first response’ in key response endpoints.
Response analysis was performed on subgroups of the ITT population according to a patient's handicap at baseline and for whom response was evaluated at W12; referred to hereafter as the handicap-related population. No data imputation was implemented. The per protocol (PP) population was defined as a subset of a given handicap-related population, which in addition had presented no major protocol deviations. Summary response data are presented using descriptive statistics with mean improvement compared to baseline in each handicap cohort, regardless of disease classification. The appropriate Wilcoxon or Fisher tests were used for group comparison of baseline disease, demographic characteristics between dose level groups and response relative to baseline. Subpopulation analysis was also conducted according to initial c-Kit status.

SMILES: Cc1ccc(NC(=O)c2ccc(CN3CCN(C)CC3)cc2)cc1Nc1nc(-c2cccnc2)cs1 [masitinib, 4-(4-methylpiperazin-1-ylmethyl)-N-[4-methyl-3-(4-pyridin-3ylthiazol-2-ylamino)phenyl]benzamide]
- first response events: AFIRMM score (at 6.0 mg/kg/day): 5
- first response events: Cumulative Frequency (at 6.0 mg/kg/day): 96%
- first response events: Flush (at 6.0 mg/kg/day): 4
- first response events: Hamilton (at 6.0 mg/kg/day): 4
- first response events: Micturition (at 6.0 mg/kg/day): 1
- first response events: OPA score (at 6.0 mg/kg/day): 4
- first response events: Pruritus (at 6.0 mg/kg/day): 4
- first response events: QLQ30 Functional (at 6.0 mg/kg/day): 1
- first response events: QLQ30 Global (at 6.0 mg/kg/day): 2
- first response events: QLQ30 Symptom (at 6.0 mg/kg/day): 1
- first response events: Stool (at 6.0 mg/kg/day): 2
- first response events: Total events (at 6.0 mg/kg/day): 28
- first response events: Cumulative Frequency (at 7.5 mg/kg/day): 100%
- first response events: Flush (at 7.5 mg/kg/day): 1
- first response events: OPA score (at 7.5 mg/kg/day): 1
- first response events: QLQ30 Symptom (at 7.5 mg/kg/day): 1
- first response events: Total events (at 7.5 mg/kg/day): 3
- AFIRMM ΔMean ± SD (W4): −44.5 ± 51.6
- Flushes per day ΔMean ± SD (W4): −1.1 ± 1.8
- Hamilton rating ΔMean ± SD (W4): −5.9 ± 3.2
- Micturitions per day ΔMean ± SD (W4): −2.5 ± 3.3
- OPA Score Change: (2, 3, 4) to (0, 1) (W4): 3 (18%)
- OPA Score No change (W4): 14 (82%)
- Pruritus ΔMean ± SD (W4): −2.8 ± 3.7
- QLQC30 Functional ΔMean ± SD (W4): 8.7 ± 18.2
- QLQC30 Global Health ΔMean ± SD (W4): 8.3 ± 25.5
- QLQC30 Symptom ΔMean ± SD (W4): −4.1 ± 7.8
- Stools per day ΔMean ± SD (W4): −4.3 ± 2.6
- AFIRMM ΔMean ± SD (W12): −61.9 ± 45.9
- Flushes per day ΔMean ± SD (W12): −1.6 ± 1.5
- Hamilton rating ΔMean ± SD (W12): −4.6 ± 4.9
- Micturitions per day ΔMean ± SD (W12): −5.4 ± 2.6
- OPA Score Change: (2, 3, 4) to (0, 1) (W12): 3 (20%)
- OPA Score No change (W12): 16 (80%)
- Pruritus ΔMean ± SD (W12): −3.3 ± 3.0
- QLQC30 Functional ΔMean ± SD (W12): 11.6 ± 16.4
- QLQC30 Global Health ΔMean ± SD (W12): 16.1 ± 26.4
- QLQC30 Symptom ΔMean ± SD (W12): −7.0 ± 15.2
- Stools per day ΔMean ± SD (W12): −4.2 ± 3.0
- AFIRMM ΔMean ± SD (W24): −66.0 ± 29.9
- Flushes per day ΔMean ± SD (W24): −1.9 ± 3.1
- Hamilton rating ΔMean ± SD (W24): −2.8 ± 9.2
- Micturitions per day ΔMean ± SD (W24): −4.3 ± 5.9
- OPA Score Change: (2, 3, 4) to (0, 1) (W24): 0 (0%)
- OPA Score No change (W24): 3 (100%)
- Pruritus ΔMean ± SD (W24): −5.1 ± 4.7
- QLQC30 Functional ΔMean ± SD (W24): 15.3 ± 10.6
- QLQC30 Global Health ΔMean ± SD (W24): 18.8 ± 27.5
- QLQC30 Symptom ΔMean ± SD (W24): −19.9 ± 8.2
- Stools per day ΔMean ± SD (W24): −2.5 ± 2.1
- AFIRMM ΔMean ± SD (W36): −62.4 ± 31.8
- Flushes per day ΔMean ± SD (W36): −2.1 ± 3.5
- Hamilton rating ΔMean ± SD (W36): −10.3 ± 5.1
- Micturitions per day ΔMean ± SD (W36): −6.5 ± 6.4
- OPA Score Change: (2, 3, 4) to (0, 1) (W36): 1 (20%)
- OPA Score No change (W36): 4 (80%)
- Pruritus ΔMean ± SD (W36): −6.9 ± 3.5
- QLQC30 Functional ΔMean ± SD (W36): 5.8 ± 16.7
- QLQC30 Global Health ΔMean ± SD (W36): 21.7 ± 26.1
- QLQC30 Symptom ΔMean ± SD (W36): −14.4 ± 6.5
- Stools per day ΔMean ± SD (W36): −0.7 ± 3.2
- AFIRMM ΔMean ± SD (W48): −64.3 ± 48.5
- Flushes per day ΔMean ± SD (W48): −2.8 ± 2.9
- Hamilton rating ΔMean ± SD (W48): −11.5 ± 6.4
- Micturitions per day ΔMean ± SD (W48): −7.0 ± 2.8
- OPA Score Change: (2, 3, 4) to (0, 1) (W48): 2 (33%)
- OPA Score No change (W48): 4 (67%)
- Pruritus ΔMean ± SD (W48): −5.2 ± 4.4
- QLQC30 Functional ΔMean ± SD (W48): 0.7 ± 16.7
- QLQC30 Global Health ΔMean ± SD (W48): 12.5 ± 14.7
- QLQC30 Symptom ΔMean ± SD (W48): −10.3 ± 6.4
- Stools per day ΔMean ± SD (W48): −2.0 ± 0.0
- AFIRMM ΔMean ± SD (W60): −61.1 ± 32.9
- Flushes per day ΔMean ± SD (W60): −2.3 ± 2.9
- Hamilton rating ΔMean ± SD (W60): −8.3 ± 7.5
- Micturitions per day ΔMean ± SD (W60): −6.0 ± 4.2
- OPA Score Change: (2, 3, 4) to (0, 1) (W60): 4 (44%)
- OPA Score No change (W60): 5 (56%)
- Pruritus ΔMean ± SD (W60): −4.6 ± 4.3
- QLQC30 Functional ΔMean ± SD (W60): 11.6 ± 11.2
- QLQC30 Global Health ΔMean ± SD (W60): 23.1 ± 25.3
- QLQC30 Symptom ΔMean ± SD (W60): −12.9 ± 8.3
- Stools per day ΔMean ± SD (W60): −4.7 ± 2.9
